Laboratory results: ChEMBL document CHEMBL4800729 (2021)

Tests used:
[1] = target: Tyrosine-protein kinase Srms (Homo sapiens) (UniProt Q9H3Y6); experiment: SRMS(h) Millipore kinase panel; conditions: Compound concentration 1.0 uM
[2] = target: Rho-associated protein kinase 2 (Homo sapiens) (UniProt O75116); experiment: ROCK-II(h) Millipore kinase panel; conditions: Compound concentration 1.0 uM
[3] = target: Cyclin-dependent kinase 2/cyclin A (Homo sapiens) (UniProt P24941+P20248+P78396); experiment: CDK2/cyclinA(h) Millipore kinase panel; format: protein-complex assay; conditions: Compound concentration 1.0 uM
[4] = target: Thromboxane-A synthase (Homo sapiens) (UniProt P24557); experiment: Inhibition of Thromboxane Synthase at compound concentration of 10.0 uM in the Eurofins-Panlabs enzyme assay (Eurofins_assay_194020); parameters: substrate with concentration; conditions: Compound concentration 10.0 uM
[5] = target: Calcium/calmodulin-dependent protein kinase type 1B (Homo sapiens) (UniProt Q6P2M8); experiment: CaMKIbeta(h) Millipore kinase panel; conditions: Compound concentration 1.0 uM
[6] = target: Dual specificity protein kinase TTK (Homo sapiens) (UniProt P33981); experiment: TTK(h) Millipore kinase panel; conditions: Compound concentration 1.0 uM
[7] = target: Beta-1 adrenergic receptor (Homo sapiens) (UniProt P08588); conditions: Compound concentration 10.0 uM
[8] = target: Estrogen receptor (Homo sapiens) (UniProt P03372); conditions: Compound concentration 10.0 uM
[9] = target: Protein kinase C iota type (Homo sapiens) (UniProt P41743); experiment: PKCiota(h) Millipore kinase panel; conditions: Compound concentration 1.0 uM
[10] = target: PI3-kinase p110-alpha/p85-alpha (Homo sapiens) (UniProt P27986+P42336); experiment: PI3 Kinase (p110a/p85a)(h) Millipore kinase panel; format: protein-complex assay; conditions: Compound concentration 1.0 uM
[11] = target: D(2) dopamine receptor (Homo sapiens) (UniProt P14416); conditions: Compound concentration 10.0 uM
[12] = target: NUAK family SNF1-like kinase 2 (Homo sapiens) (UniProt Q9H093); experiment: NUAK2(h) Millipore kinase panel; conditions: Compound concentration 1.0 uM
[13] = target: Tyrosine-protein kinase TXK (Homo sapiens) (UniProt P42681); experiment: Txk(h) Millipore kinase panel; conditions: Compound concentration 1.0 uM
[14] = target: Protein-tyrosine kinase 2-beta (Homo sapiens) (UniProt Q14289); experiment: Pyk2(h) Millipore kinase panel; conditions: Compound concentration 1.0 uM
[15] = target: Epidermal growth factor receptor (Homo sapiens) (UniProt P00533); experiment: EGFR(h) Millipore kinase panel; conditions: Compound concentration 1.0 uM
[16] = target: Angiopoietin-1 receptor (Homo sapiens) (UniProt Q02763); experiment: Tie2(h) Millipore kinase panel; conditions: Compound concentration 1.0 uM
[17] = target: cGMP-specific 3',5'-cyclic phosphodiesterase (Homo sapiens) (UniProt O76074); conditions: Compound concentration 10.0 uM
[18] = target: Glutamate NMDA receptor (Rattus norvegicus) (UniProt P35439+Q00959+Q00960+Q00961+Q62645+Q8VHN2+Q9R1M7); conditions: Compound concentration 10.0 uM
[19] = target: Proto-oncogene tyrosine-protein kinase Src (Homo sapiens) (UniProt P12931); experiment: cSRC(h) Millipore kinase panel; conditions: Compound concentration 1.0 uM
[20] = target: Mitogen-activated protein kinase kinase kinase kinase 3 (Homo sapiens) (UniProt Q8IVH8); experiment: MAP4K3(h) Millipore kinase panel; conditions: Compound concentration 1.0 uM
[21] = target: 5-hydroxytryptamine receptor 2B (Homo sapiens, UniProt P41595); conditions: Compound concentration 10.0 uM
[22] = target: Dual specificity tyrosine-phosphorylation-regulated kinase 1B (Homo sapiens) (UniProt Q9Y463); experiment: DYRK1B(h) Millipore kinase panel; conditions: Compound concentration 1.0 uM
[23] = target: 5-hydroxytryptamine receptor 2C (Homo sapiens) (UniProt P28335); conditions: Compound concentration 10.0 uM
[24] = target: T1, Alpha-2C adrenergic receptor (Homo sapiens) (UniProt P18825); conditions: Compound concentration 10.0 uM
T1 sequence (whole entry): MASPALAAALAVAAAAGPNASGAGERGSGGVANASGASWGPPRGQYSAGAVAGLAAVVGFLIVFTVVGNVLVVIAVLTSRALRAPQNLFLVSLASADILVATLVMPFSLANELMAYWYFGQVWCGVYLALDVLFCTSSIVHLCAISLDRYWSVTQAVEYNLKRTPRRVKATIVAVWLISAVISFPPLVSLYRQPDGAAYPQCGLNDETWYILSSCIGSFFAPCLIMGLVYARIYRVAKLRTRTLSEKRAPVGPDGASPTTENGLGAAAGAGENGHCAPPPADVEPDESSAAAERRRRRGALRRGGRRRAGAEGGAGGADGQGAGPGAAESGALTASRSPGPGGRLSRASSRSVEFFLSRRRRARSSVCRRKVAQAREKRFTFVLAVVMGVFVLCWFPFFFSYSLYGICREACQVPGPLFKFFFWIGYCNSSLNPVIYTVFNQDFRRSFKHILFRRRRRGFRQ

[25] = target: CDK17/Cyclin-Y (Homo sapiens) (UniProt Q00537+Q8ND76); experiment: CDK17/cyclinY(h) Millipore kinase panel; format: protein-complex assay; conditions: Compound concentration 1.0 uM
[26] = target: Serine/threonine-protein kinase STK11 (Homo sapiens) (UniProt Q15831); experiment: LKB1(h) Millipore kinase panel; conditions: Compound concentration 1.0 uM
[27] = target: Beta-adrenergic receptor kinase 1 (Homo sapiens) (UniProt P25098); experiment: GRK2(h) Millipore kinase panel; conditions: Compound concentration 1.0 uM
[28] = target: Serine/threonine-protein kinase Sgk3 (Homo sapiens) (UniProt Q96BR1); experiment: SGK3(h) Millipore kinase panel; conditions: Compound concentration 1.0 uM
[29] = target: MAP kinase-activated protein kinase 3 (Homo sapiens) (UniProt Q16644); experiment: MAPKAP-K3(h) Millipore kinase panel; conditions: Compound concentration 1.0 uM
[30] = target: Tribbles homolog 2 (Homo sapiens) (UniProt Q92519); experiment: TRB2(h) Millipore kinase panel; conditions: Compound concentration 1.0 uM
[31] = target: Serine/threonine-protein kinase BRSK1 (Homo sapiens) (UniProt Q8TDC3); experiment: BrSK1(h) Millipore kinase panel; conditions: Compound concentration 1.0 uM
[32] = target: CDK7/Cyclin H/MNAT1 (Homo sapiens) (UniProt P51946+P50613+P51948); experiment: CDK7/cyclinH/MAT1(h) Millipore kinase panel; format: protein-complex assay; conditions: Compound concentration 1.0 uM
[33] = target: Glycogen synthase kinase-3 beta (Homo sapiens) (UniProt P49841); experiment: GSK3beta(h) Millipore kinase panel; conditions: Compound concentration 1.0 uM
[34] = target: Serine/threonine-protein kinase Nek11 (Homo sapiens) (UniProt Q8NG66); experiment: NEK11(h) Millipore kinase panel; conditions: Compound concentration 1.0 uM
[35] = target: Dual specificity protein kinase CLK2 (Homo sapiens) (UniProt P49760); experiment: CLK2(h) Millipore kinase panel; conditions: Compound concentration 1.0 uM
[36] = target: Homeodomain-interacting protein kinase 4 (Homo sapiens) (UniProt Q8NE63); experiment: HIPK4(h) Millipore kinase panel; conditions: Compound concentration 1.0 uM
[37] = target: Serine/threonine-protein kinase PRP4 homolog (Homo sapiens) (UniProt Q13523); experiment: PRP4(h) Millipore kinase panel; conditions: Compound concentration 1.0 uM
[38] = target: Histamine H4 receptor (Homo sapiens) (UniProt Q9H3N8); conditions: Compound concentration 10.0 uM
[39] = target: Death-associated protein kinase 1 (Homo sapiens) (UniProt P53355); experiment: DAPK1(h) Millipore kinase panel; conditions: Compound concentration 1.0 uM
[40] = target: Sigma non-opioid intracellular receptor 1 (Homo sapiens) (UniProt Q99720); conditions: Compound concentration 10.0 uM

Measured: inhibition

Chain of Calcium/calmodulin-dependent protein kinase type 1B (Homo sapiens) (Q6P2M8 whole entry): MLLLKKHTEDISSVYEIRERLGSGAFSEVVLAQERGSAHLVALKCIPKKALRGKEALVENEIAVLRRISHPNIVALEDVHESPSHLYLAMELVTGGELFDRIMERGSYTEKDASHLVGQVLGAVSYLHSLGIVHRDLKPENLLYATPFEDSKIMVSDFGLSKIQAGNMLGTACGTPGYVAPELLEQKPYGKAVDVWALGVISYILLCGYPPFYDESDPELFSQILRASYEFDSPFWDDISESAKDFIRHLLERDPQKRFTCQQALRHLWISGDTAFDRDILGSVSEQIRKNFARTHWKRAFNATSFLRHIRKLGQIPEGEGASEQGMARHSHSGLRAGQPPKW
Chain of Angiopoietin-1 receptor (Homo sapiens) (Q02763 whole entry): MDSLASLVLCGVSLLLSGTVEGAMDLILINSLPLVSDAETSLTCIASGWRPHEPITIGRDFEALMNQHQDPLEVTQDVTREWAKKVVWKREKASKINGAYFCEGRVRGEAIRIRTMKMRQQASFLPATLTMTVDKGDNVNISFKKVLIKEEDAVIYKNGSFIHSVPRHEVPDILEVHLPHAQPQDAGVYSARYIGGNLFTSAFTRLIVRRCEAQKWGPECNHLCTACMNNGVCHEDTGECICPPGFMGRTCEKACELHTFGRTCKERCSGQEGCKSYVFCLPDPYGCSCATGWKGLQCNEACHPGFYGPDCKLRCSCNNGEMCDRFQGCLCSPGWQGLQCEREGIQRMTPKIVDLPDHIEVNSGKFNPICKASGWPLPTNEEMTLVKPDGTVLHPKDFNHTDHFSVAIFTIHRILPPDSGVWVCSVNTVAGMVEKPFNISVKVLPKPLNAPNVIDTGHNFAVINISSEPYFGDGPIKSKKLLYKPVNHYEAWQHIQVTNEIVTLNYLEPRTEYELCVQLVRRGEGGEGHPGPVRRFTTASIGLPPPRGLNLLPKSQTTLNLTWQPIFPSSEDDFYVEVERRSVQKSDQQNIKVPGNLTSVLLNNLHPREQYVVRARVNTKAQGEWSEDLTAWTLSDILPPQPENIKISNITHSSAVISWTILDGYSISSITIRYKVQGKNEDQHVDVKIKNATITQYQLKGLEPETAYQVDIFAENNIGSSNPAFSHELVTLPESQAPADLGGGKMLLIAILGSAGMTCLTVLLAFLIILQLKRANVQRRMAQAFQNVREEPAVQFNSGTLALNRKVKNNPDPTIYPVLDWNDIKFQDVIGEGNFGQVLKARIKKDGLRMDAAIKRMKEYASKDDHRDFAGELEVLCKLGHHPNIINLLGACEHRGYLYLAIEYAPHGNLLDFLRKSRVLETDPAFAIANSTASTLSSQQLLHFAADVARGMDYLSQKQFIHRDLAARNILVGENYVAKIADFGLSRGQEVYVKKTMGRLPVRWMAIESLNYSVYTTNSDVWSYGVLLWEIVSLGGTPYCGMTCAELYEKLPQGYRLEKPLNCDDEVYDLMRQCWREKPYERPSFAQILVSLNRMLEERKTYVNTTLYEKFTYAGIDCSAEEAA
Chain of Thromboxane-A synthase (Homo sapiens) (P24557 whole entry): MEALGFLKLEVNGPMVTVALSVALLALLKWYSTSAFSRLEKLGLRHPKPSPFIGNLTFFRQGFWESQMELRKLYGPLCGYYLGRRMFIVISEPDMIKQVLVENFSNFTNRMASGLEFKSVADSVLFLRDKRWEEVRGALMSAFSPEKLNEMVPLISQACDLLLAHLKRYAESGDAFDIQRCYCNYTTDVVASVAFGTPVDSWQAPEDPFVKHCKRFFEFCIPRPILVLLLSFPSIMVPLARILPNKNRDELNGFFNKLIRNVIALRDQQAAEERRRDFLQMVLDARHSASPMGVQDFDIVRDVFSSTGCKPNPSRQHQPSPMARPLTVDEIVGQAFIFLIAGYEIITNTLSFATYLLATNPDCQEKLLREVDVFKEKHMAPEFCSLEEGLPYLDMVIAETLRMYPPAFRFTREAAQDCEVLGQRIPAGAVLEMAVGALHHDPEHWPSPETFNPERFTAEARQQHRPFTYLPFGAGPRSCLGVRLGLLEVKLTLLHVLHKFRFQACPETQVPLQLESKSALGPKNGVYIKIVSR
Chain of Dual specificity protein kinase TTK (Homo sapiens) (P33981 whole entry): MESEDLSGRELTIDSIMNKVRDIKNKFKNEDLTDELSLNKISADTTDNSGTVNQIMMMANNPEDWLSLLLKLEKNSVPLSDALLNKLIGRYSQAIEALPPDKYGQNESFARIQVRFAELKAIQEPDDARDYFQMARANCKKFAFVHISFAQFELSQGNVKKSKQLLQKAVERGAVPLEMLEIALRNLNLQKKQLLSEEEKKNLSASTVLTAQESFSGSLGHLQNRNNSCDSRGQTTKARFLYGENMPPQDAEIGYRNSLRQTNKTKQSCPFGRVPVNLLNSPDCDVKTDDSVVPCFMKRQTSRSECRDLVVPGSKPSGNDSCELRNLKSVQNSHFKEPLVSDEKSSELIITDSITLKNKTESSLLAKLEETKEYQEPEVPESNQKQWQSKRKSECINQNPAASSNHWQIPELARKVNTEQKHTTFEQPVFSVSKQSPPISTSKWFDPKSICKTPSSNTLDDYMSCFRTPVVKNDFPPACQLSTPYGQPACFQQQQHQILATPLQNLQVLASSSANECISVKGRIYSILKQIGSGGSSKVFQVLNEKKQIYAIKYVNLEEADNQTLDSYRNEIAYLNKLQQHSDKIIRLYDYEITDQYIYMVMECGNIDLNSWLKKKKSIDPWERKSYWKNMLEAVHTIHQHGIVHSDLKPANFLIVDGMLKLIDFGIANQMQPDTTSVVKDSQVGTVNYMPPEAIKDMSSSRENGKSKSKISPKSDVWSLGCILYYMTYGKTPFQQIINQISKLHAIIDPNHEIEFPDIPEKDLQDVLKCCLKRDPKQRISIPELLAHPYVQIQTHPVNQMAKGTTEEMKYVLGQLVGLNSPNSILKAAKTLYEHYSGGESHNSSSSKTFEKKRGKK
Chain of Beta-1 adrenergic receptor (Homo sapiens) (P08588 whole entry, looked up): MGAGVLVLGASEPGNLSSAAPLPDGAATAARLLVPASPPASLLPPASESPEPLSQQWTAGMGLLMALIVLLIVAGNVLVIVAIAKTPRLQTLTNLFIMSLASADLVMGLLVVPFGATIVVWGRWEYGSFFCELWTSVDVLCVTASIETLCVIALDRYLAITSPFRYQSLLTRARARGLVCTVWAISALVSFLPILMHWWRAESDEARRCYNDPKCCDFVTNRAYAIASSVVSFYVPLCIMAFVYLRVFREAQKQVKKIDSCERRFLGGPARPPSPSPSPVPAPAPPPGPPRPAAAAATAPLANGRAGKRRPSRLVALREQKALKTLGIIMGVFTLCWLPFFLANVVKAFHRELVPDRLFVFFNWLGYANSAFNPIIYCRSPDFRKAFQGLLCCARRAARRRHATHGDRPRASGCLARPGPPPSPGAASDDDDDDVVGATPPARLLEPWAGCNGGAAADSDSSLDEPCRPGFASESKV
Chain of Epidermal growth factor receptor (Homo sapiens) (P00533 whole entry): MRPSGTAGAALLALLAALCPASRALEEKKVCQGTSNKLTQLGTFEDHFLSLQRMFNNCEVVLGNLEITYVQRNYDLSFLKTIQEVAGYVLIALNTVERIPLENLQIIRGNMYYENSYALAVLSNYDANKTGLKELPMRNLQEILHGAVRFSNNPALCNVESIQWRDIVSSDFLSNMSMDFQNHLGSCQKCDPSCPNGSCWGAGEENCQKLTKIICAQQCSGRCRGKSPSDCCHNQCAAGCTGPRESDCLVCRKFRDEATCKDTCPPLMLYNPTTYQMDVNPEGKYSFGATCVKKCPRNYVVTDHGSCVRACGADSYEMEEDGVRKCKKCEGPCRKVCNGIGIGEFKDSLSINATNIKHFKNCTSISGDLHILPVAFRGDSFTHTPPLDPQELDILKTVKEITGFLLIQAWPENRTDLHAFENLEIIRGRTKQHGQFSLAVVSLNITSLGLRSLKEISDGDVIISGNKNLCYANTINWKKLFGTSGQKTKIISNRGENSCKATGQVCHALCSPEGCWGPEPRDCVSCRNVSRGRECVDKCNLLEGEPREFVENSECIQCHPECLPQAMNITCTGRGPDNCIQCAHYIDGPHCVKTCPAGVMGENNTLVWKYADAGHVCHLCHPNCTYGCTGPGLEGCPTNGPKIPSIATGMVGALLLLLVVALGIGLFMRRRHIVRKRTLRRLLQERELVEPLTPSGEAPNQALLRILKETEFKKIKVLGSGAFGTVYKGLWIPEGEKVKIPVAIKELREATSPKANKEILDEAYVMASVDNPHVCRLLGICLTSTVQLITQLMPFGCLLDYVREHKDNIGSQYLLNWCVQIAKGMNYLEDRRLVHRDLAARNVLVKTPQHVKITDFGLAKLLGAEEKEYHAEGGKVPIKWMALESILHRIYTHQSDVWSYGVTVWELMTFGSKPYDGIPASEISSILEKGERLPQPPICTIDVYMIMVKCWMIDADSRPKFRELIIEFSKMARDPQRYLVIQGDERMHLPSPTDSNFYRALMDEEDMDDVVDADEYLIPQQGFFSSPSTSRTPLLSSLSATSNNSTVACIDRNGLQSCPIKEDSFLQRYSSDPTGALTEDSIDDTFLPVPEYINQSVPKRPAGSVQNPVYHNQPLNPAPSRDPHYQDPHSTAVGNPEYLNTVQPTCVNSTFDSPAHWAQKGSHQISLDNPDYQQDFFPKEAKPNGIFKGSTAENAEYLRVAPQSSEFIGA
Chain of 5-hydroxytryptamine receptor 2B (P41595 whole entry): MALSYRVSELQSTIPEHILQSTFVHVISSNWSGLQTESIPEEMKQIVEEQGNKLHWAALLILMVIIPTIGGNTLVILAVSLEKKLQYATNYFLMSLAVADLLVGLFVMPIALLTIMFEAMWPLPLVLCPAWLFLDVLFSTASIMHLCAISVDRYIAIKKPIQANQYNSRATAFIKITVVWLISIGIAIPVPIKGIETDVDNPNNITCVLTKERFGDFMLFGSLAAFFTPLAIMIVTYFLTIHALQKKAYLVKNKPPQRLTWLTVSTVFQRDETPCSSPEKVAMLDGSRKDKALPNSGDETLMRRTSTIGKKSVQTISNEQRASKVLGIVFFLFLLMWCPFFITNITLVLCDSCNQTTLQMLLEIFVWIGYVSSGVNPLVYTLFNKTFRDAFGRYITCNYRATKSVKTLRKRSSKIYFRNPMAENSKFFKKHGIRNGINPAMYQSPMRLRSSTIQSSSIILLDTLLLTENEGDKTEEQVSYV

CC[C@@H](Nc1c(C#N)c(-c2ccc(-c3cccc(C)c3F)cc2)nc2cnccc12)C(=O)O [BAY-091]
inactive: [1] 26.3% | [2] -0.6% | [3] -1.5% | [5] -7.99% | [6] -9.1% | [7] 2% | [8] 10% | [9] 5.85% | [10] 11% | [11] 8% | [12] 10.4% | [13] -2.9% | [14] 10.7% | [15] 10.8% | [16] 12.8% | [18] -3% | [19] 7.51% | [20] 8.29% | [22] 12.1% | [23] 29% | [24] -6.87% | [25] 0.09% | [26] 5.7% | [27] 1.9% | [28] 6.09% | [29] 5.32% | [30] 0.49% | [31] -4.39% | [32] 0.3% | [33] -0.05% | [34] 7.12% | [35] 0.07% | [36] 15.7% | [37] 18.9% | [38] 15.8% | [39] -3.29% | [40] 35.8%
active: [4] 98% | [17] 62% | [21] 61%
